Like-named read-outs stand apart in the source and are kept apart here.
System: T1, XyrB
T1 construct: full-length intron-free codon-optimized gene in pET-28a(+), E. coli BL21(DE3)pLysS, HisTrap purified; AKR motif 22-277
Assay: NADPH consumption at […] nm, Michaelis-Menten fit
Assay type: biochemical, Aspergillus niger
Conditions: 0.2 mM NADPH, PBS pH 7.0, 25 °C

Km (read-out: D-xylose / Km)	SMILES	Km (read-out: Km)
	OC[C@H]1OC(O)[C@H](O)[C@@H](O)[C@H]1O (stereo partly drawn) [D-galactose]	12.5 mM
3.3 mM	OC1OC[C@@H](O)[C@H](O)[C@H]1O (stereo partly drawn) [D-xylose]	
	OC1OC[C@H](O)[C@H](O)[C@H]1O (stereo partly drawn) [L-arabinose]	9.9 mM

— PMC8020424, “Characterization of D-xylose reductase, XyrB, from Aspergillus niger” (Biotechnology Reports, 2021)
